Earlier results as cited in patent US7858592B2, “Interfering RNAs against the promoter region of P53” (The Board of Regents of the University of Texas System, priority 2007, dated 2010).
Where a name gives a salt, the structure may show the parent alone.

What was measured:
[1] = not given; remark: listed apart in the source
[2] = not given; remark: listed apart in the source

CC[C@@]1(O)C(=O)OCc2c1cc1n(c2=O)Cc2cc3ccccc3nc2-1 [Camptothecin]
solubility in water: poor water-solubility

O.O=P1(N(CCCl)CCCl)NCCCO1 (stereo not drawn) [Cyclophosphamide, 2H-1,3,2-Oxazaphosphorin-2-amine, N,N-bis(2-chloroethyl)tetrahydro-, 2-oxide, monohydrate]
local tolerability ([1]; oral and parental routes): does not cause local vesication, necrosis, phlebitis or even pain

COc1cccc2c1C(=O)c1c(O)c3c(c(O)c1C2=O)C[C@@](O)(C(=O)CO)C[C@@H]3O[C@H]1C[C@H](N)[C@H](O)[C@H](C)O1 [Doxorubicin, 5,12-Naphthacenedione, (8s-cis)-10-[(3-amino-2,3,6-trideoxy-a-L-lyxo-hexopyranosyl)oxy]-7,8,9,10-tetrahydro-6,8,11-trihydroxy-8-(hydroxyacetyl)-1-methoxy-hydrochloride]
excreted into the urine ([2]; in vivo): a few percent

O=NN(CCCl)C(=O)NC1CCCCC1 [Lomustine, 1-(2-chloro-ethyl)-3-cyclohexyl-1 nitrosourea]
tissue levels versus plasma levels ([2]; 15 minutes after intravenous administration): comparable to plasma levels

CC[C@]1(O)C[C@H]2CN(CCc3c([nH]c4ccccc34)[C@@](C(=O)OC)(c3cc4c(cc3OC)N(C=O)[C@H]3[C@@](O)(C(=O)OC)[C@H](OC(C)=O)[C@]5(CC)C=CCN6CC[C@]43[C@@H]65)C2)C1 [Vincristine]
toxicity for normal marrow cells and epithelial cells ([1]; in vivo): relatively low toxicity

N[C@H](Cc1ccc(N(CCCl)CCCl)cc1)C(=O)O [medphalan]
activity relative to the L-isomer (certain animal tumors): less active
